Test results reported in patent publication US5464861A, “2-thioindoles (selenoindoles) and related disulfides (selenides) which inhibit protein tyrosine kinases and which have antitumor properties” (Warner-Lambert, priority 1993, dated 1995).
Where two headings read alike, the source gives them in different places.

Tests used:
[1] = biological target: T1, epidermal growth factor receptor tyrosine kinase (Homo sapiens, UniProt P00533); assay: EGF receptor tyrosine kinase assay (P^32 incorporation in GAT); type: biochemical; conditions: for inhibition at 100 µM: EGRF-R, read-out: % Inhibition at 100 μM (EGFR TK)
T1 construct: A native 170,000 epidermal growth factor receptor-kinase complex from shed plasma membrane vesicles; endogenous in cells
T1 sequence (P00533 25-1210): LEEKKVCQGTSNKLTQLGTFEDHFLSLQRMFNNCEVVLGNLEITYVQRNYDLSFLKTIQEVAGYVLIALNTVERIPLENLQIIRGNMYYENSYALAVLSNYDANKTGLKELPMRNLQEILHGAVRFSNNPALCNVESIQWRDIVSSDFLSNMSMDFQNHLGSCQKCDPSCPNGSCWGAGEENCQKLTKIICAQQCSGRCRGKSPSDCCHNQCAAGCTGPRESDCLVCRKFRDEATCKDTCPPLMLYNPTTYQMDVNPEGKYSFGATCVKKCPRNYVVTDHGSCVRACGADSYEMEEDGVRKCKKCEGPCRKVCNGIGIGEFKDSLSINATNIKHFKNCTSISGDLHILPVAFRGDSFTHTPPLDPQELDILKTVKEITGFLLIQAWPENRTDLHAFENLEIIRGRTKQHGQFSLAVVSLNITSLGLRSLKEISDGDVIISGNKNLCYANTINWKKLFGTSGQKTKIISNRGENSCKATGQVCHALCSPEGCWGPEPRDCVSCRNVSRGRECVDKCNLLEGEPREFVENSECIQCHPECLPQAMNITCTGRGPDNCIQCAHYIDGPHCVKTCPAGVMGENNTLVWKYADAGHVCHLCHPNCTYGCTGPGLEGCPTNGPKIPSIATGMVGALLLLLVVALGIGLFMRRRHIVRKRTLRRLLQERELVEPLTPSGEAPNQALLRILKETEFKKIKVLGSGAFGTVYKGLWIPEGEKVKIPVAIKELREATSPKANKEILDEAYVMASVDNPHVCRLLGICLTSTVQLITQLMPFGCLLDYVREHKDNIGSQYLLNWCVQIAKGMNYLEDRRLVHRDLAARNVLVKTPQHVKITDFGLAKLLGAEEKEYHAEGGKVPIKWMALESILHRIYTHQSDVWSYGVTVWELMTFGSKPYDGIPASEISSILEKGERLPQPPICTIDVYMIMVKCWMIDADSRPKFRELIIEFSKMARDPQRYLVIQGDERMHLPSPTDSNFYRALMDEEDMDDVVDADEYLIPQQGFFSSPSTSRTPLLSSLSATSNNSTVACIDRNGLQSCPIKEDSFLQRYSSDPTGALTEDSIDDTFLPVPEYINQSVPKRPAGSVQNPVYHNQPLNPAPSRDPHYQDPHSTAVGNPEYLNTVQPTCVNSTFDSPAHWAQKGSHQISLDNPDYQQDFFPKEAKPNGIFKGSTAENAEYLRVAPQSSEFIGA
T1 sequence (P01133 971-1023 partner limits assumed): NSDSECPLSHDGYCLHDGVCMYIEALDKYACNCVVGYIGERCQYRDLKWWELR
Method: At the time of assay, membranes were solubilized in 4% Triton X-100 and glycerol. The reaction is carried out in wells of a 96-well microtiter plate in a total volume of […]. Buffer containing 20 mMHepes (pH 7.4), 15 mMMgCl2, mM MnCl2, and 0.02% BSA followed by […] of membrane protein and 150 ng of epidermal growth factor. The plates are incubated for 10 minutes at room temperature to activate the receptor kinase. […] ATP plus or minus compound are added and incubated 10 minutes at room temperature.

[2] = tested on: Swiss 3T3 mouse fibroblasts; assay: Growth inhibition assay, Swiss 3T3 fibroblasts; type: cell-based
Method: Swiss 3T3 mouse fibroblasts were maintained in dMEM/F12 media containing 10% fetal calf serum. […] The cells were grown at 37° C. under 5% CO2 for 72 hours and then counted by Coulter counter. The data were expressed as the concentration of inhibitor necessary to decrease the growth rate by 50%.

[3] = Table 2, EGRF-R, IC50 entries, read-out: IC50 (EGFR TK)
[4] = Swiss 3T3, 72 hours, Table 2, read-out: IC50 growth inhibition
[5] = Swiss-3T3, 72 h, read-out: IC50 growth inhibition

IC50 [1, 3] | inhibition at 100 µM [1] | Structure (SMILES) | IC50 [2, 4] | also measured
8.3 µM |  | O=C(O)Cc1c(SSc2[nH]c3ccccc3c2CC(=O)O)[nH]c2ccccc12 [Compound 29, bis[indolyl-3-acetic acid-(2)] disulfide] | 25 to 100 µM | 
20.6 µM |  | COC(=O)CCc1c(SSc2[nH]c3ccccc3c2CCC(=O)OC)[nH]c2ccccc12 [Compound 39] | 7.4 µM | 
9.3 µM |  | O=C(O)Cc1c(SSSc2[nH]c3ccccc3c2CC(=O)O)[nH]c2ccccc12 [Compound 30, bis[indolyl-3-acetic acid-(2)]trisulfide] | 8 µM | 
 | 11.4% | CCOC(=O)CCc1c(SSc2[nH]c3c(C)cccc3c2CCC(=O)OCC)[nH]c2c(C)cccc12 [Compound 46, bis[ethyl 7-methylindolyl-3-propanoate-(2)] disulfide] | 2.7 µM | 
 |  | CNC(=O)c1c([Se][Se]c2c(C(=O)NC)c3ccccc3n2C)n(C)c2ccccc12 [Compound 131, 2,2'-diselenobis [N,1-dimethyl-1H -indole-3-carboxamide]] |  | IC50 [1]: 5.8 µM; IC50 [2, 5]: 5.5 µM
 | 14% | COC(=O)CCCc1c(SSc2c(CCCC(=O)OC)c3ccccc3n2C)n(C)c2ccccc12 [Compound 68, bis[methyl 1-methylindolyl-3-butanoate-(2)]disulfide] | 1.8 µM | 
 | 52% | COC(=O)CCC1C(=S)Nc2ccccc21 (stereo not drawn) [Compound 9, methyl 3-(2-thioxo-3-indolinyl)propanoate] | 16 µM | 
1.3 µM |  | O=C(O)CCC1C(=S)Nc2ccccc21 (stereo not drawn) [Compound 7, 3-(2-thioxo-3-indolinyl)propanoic acid] | 94 µM | 
8.4 µM |  | Cc1ccc2[nH]c(SSc3[nH]c4ccc(C)cc4c3CCC(=O)O)c(CCC(=O)O)c2c1 [Compound 41, bis[5-methylindolyl-3-propanoic acid-(2)]disulfide] | > 25 µM | 
4.8 µM |  | O=C(O)CCc1c(SSc2[nH]c3ccccc3c2CCC(=O)O)[nH]c2ccccc12 [Compound 36, bis[indolyl-3-propanoic acid-(2)]disulfide] | 59 µM | 
17.8 µM |  | COC(=O)Cc1c(SSc2[nH]c3ccccc3c2CC(=O)OC)[nH]c2ccccc12 [Compound 27, bis[methylindolyl-3-acetate-(2)]disulfide] | 2.3 µM | 
 |  | CCN(CC)CCNC(=O)c1c([Se][Se]c2c(C(=O)NCCN(CC)CC)c3ccccc3n2C)n(C)c2ccccc12 [Compound 132, 2,2'-diselenobis [N-[2-(diethylamino)ethyl]-1-methyl-1H-indole-3-carboxamide]] |  | IC50 ([1]; read-out: IC50 (EGFR TK)): 4.7 µM; IC50 [2, 5]: 20 µM
35.5 µM |  | COC(=O)Cc1c(SSSc2[nH]c3ccccc3c2CC(=O)OC)[nH]c2ccccc12 [Compound 31, bis[methylindolyl-3-acetate-(2)]trisulfide] | 1 µM | 
6.5 µM |  | COc1cccc2c(C(=O)Nc3ccccc3)c(SSc3c(C(=O)Nc4ccccc4)c4cccc(OC)c4n3C)n(C)c12 [Compound 82, bis[N-phenyl 7-methoxy-1-methylindolyl-3-carboxamide-(2)]disulfide] | 24 µM | 
 | 36.5% | CCOC(=O)CCc1c(SSc2[nH]c3ccccc3c2CCC(=O)OCC)[nH]c2ccccc12 [Compound 38, bis[ethylindolyl-3-propanoate-(2)] disulfide] | 1.6 µM | 
 | 16.3% | COC(=O)CCc1c(SSc2c(CCC(=O)OC)c3ccccc3n2C)n(C)c2ccccc12 [Compound 40, 2,2'-dithiobis[methyl 3-(1-methyl-3-indolyl)propanoate]] | 5.2 µM | 
 |  | CNC(=O)c1c([Se][Se]c2[nH]c3ccccc3c2C(=O)NC)[nH]c2ccccc12 [Compound 133, 2,2'-diselenobis[N-methyl-1H-indole-3-carboxamide]] |  | IC50 ([1]; read-out: IC50 (EGFR TK)): 13 µM; IC50 [2, 5]: < 5 µM

Structure (SMILES) | IC50 [1, 3] | inhibition at 100 µM [1] | IC50 [2, 4] | also measured
Cc1c(SSc2c(C)c3ccccc3n2C)n(C)c2ccccc12 [Compound 103] |  | 7% |  | IC50 [2, 5]: 3.8 µM
